From paper PMC11999305, “Biochemical characterization of zebrafish Paqr5b” (Biochemistry and Biophysics Reports, 2025)
Read-outs that look alike come from different tables or passages of the source.

Assays:
[1] = target: T1, zPaqr5b (zebrafish Paqr5b) (Danio rerio, UniProt Q6DC77); experiment: competition with [3H]-progesterone, filter binding
T1 construct: full-length CDS in pPICZalphaC; alpha-factor pre-pro signal N-terminal (major purified band 55 kDa keeps it, 45 kDa band Kex2-cut), C-terminal c-Myc and 6xHis kept; Pichia pastoris X-33; DDM-solubilized, purified by Ni-NTA and Sephacryl S-300
T1 sequence (Q6DC77 1-347): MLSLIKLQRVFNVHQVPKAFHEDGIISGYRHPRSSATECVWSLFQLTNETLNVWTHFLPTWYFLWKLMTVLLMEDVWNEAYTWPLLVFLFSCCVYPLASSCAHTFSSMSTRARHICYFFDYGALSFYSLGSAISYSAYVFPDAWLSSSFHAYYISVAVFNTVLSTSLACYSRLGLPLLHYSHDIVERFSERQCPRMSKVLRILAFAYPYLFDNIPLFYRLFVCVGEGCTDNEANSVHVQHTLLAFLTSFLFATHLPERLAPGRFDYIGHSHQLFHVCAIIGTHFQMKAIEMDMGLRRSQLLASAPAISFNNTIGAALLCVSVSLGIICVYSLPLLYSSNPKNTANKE
Description: competition with [3H]-progesterone, filter binding on zPaqr5b (zebrafish Paqr5b)

[2] = target: T1, zPaqr5b (zebrafish Paqr5b); experiment: radioligand saturation, filter binding, Scatchard

SMILES	IC50 [1]	IC50 ([1]; read-out: IC50)	Kd [2]
CC(=O)[C@H]1CC[C@H]2[C@@H]3CC[C@H]4C[C@H](O)CC[C@]4(C)[C@H]3CC[C@]12C [ALLO, allopregnanolone]	25.2 nM	–	–
C[C@@H](O)[C@@]1(O)CC[C@H]2[C@@H]3CCC4=CC(=O)CC[C@]4(C)[C@H]3CC[C@@]21C [DHP, 17α,20β-dihydroxy-4-pregnen-3-one]	–	19.2 nM	–
CC(=O)[C@H]1CC[C@H]2[C@@H]3CCC4=CC(=O)CC[C@]4(C)[C@H]3CC[C@]12C [P4, progesterone]	–	5.32 nM	4.6 nM
CC(=O)[C@H]1CC[C@H]2[C@@H]3CC=C4C[C@@H](O)CC[C@]4(C)[C@H]3CC[C@]12C [Preg, pregnenolone]	–	38.3 nM	–
